{"source": "patent US4661473A", "about": "“Renin inhibitors containing peptide isosteres” (Merck & Co., Inc., priority 1984, dated 1987)", "origin": "cited, not measured here", "system": "hog renin", "settings": "after the injection of hog renin into nephrectomized rats; Gross et al. 1971"}
{"substance": "Pepstatin", "values": [{"measurement": "blood pressure in vivo", "result": "reduce blood pressure in vivo"}]}
